Several values for one entry are separate records, joined by “and”; a condition that tells them apart may be missing. Equal entries are not always repeated.
What was measured:
[1] = tested on: differentiated 3T3-L1 adipocytes; assay: Insulin-stimulated glucose uptake assay by (3H)2-deoxyglucose; format: cell-based, mouse; parameters: insulin-stimulated glucose uptake, Fig 1J replicates / Figure 5E raw value, insulin-stimulated glucose uptake (replicates): unit not given here
Method: (§1) The cell lines, which were tested for mycoplasma contamination and authenticated, were purchased from the Bioresource Collection and Research Center, Taiwan. All cells were cultured at 37 °C, 5% CO2 in a humidified incubator. HEK293T cells were maintained in DMEM (cat. no. SH30003.02, HyClone) supplemented with 10% fetal bovine serum (FBS) (cat. no. 04-001-1A, Biological Industries) and 1% antibiotic/antimycotic solution (cat. no. SV30079.01, HyClone). 3T3-L1 preadipocytes were maintained at ~70% confluence in DMEM with 10% calf serum (cat. no. 16170078, Gibco) and 1% antibiotic/antimycotic solution. For adipocyte differentiation, confluent 3T3-L1 cells (defined as day 0) were exposed to an induction medium containing 10% FBS, 1 μM dexamethasone (cat. no. D4902, Sigma-Aldrich), and 1 μg/ml insulin (Humulin R, Eli Lilly) in DMEM with or without 0.5 mM isobutyl-methylxanthine (cat. no. sc-201188A, Santa Cruz Biotechnology) as indicated. After two days, the medium was replaced with DMEM containing 10% FBS and 1 μg/ml insulin and was replenished every two days until assay.
Differentiated 3T3-L1 cells were starved with serum-free DMEM containing 0.2% BSA (cat. no. A9647, Sigma-Aldrich). Cells were rinsed twice with KRH buffer (137 mM NaCl, 4.7 mM KCl, 1.85 mM CaCl2, 1.3 mM MgSO4, 50 mM HEPES and 0.1% BSA, pH 7.4), and treated with or without […] insulin in the presence of 20 μM cytochalasin B (cat. no. 11328, Cayman Chemical), a GLUT inhibitor for measuring non-specific glucose uptake, for 30 min. Cells were then incubated with 0.5 μCi [^3H]-2-deoxy-D-Glucose (cat. no. NET328A001MC, PerkinElmer) and 0.1 μM 2-deoxy-D-Glucose (2DG) (cat. no. 14325, Cayman Chemical) for 5 min. Uptake of 2DG was terminated by rapidly removing medium and washing with ice-cold PBS three times. Cells were lysed with 0.1% SDS, and the radioactivity was measured using a liquid scintillation counter. Insulin-mediated glucose uptake was calculated by subtracting insulin-treated glucose uptake with basal glucose uptake.

[2] = tested on: mPPARγ-downstream genes; assay: RT-qPCR of Glut4 and other mPPARγ-downstream genes in differentiated 3T3-L1 adipocytes; format: cell-based, mouse
Method: as §1
A total of 1 × 10^5 3T3-L1 preadipocytes were seeded in 6-well plates and differentiated for six days. The 3T3-L1 adipocytes were then harvested in 1 ml of REzol C&T (cat. no. PT-KP200CT, Protech), and total RNA was extracted according to the manufacturer’s instructions with slight modifications. Briefly, 200 μl of chloroform were added to 1 ml of sample in REzol, and samples were vigorously mixed by shaking for 30 s, followed by incubation at room temperature for 5 min. Then, samples were centrifuged at 12,000 × g for 15 min at 4 °C, and 400 μl of the upper aqueous phase were transferred to a new 1.5-ml tube. An equal volume of isopropanol was added. Samples were inverted several times for mixing and then centrifuged at 12,000 × g for 10 min at 4 °C. The RNA precipitate, which formed a pellet at the bottom of the 1.5-ml tube, was washed three times with 75% ethanol and air-dried for 15 min. Pellets were dissolved in RNase-free water. The concentration of RNA was measured using Nanodrop. cDNA was synthesized using a reverse transcription kit (cat. no. K1622, Thermo Scientific) using the oligo(dT)18 primers. RT-qPCR was performed in a 10-μl reaction with 50 ng cDNA and 0.2 μM primer using SYBR green reagent (cat. no. 11203ES08, YEASEN). Mouse peptidylprolyl isomerase A (Ppia) mRNA was used as the internal control. RT-qPCR reactions were performed using ABI 7900HT FAST (Applied Biosystems) and Sequence Detection Systems (SDS v2.3, Applied Biosystems). All qPCR reactions were run in duplicates. The primers used are listed in Appendix Table S3.

[3] = tested on: PPARγ-null 3T3-L1 clones rescued with wild-type mPPARγ; assay: Insulin-stimulated glucose uptake in PPARγ-null 3T3-L1 clones rescued with wild-type mPPARγ; format: cell-based, mouse; conditions: Pio 1; clone #1296 rescued with wild-type mPPARγ
Method: (§2) Gene editing was performed in 3T3-L1 preadipocytes using the clustered regularly interspaced short palindromic repeats (CRISPR)/Cas9 system. Two single-guide RNAs (sgRNA) (Appendix Table S5) targeting exon 6 of mouse Pparγ were designed using a web-based design tool (http://crispr.mit.edu/). These oligonucleotides were cloned into the pSurrogate reporter and pAll-Cas9.Ppuro vector obtained from Academia Sinica, Taiwan. The pSurrogate reporter contains an EGFP and an out-of-frame mCherry downstream of the sgRNA; the pAll-Cas9.Ppuro vector expresses Cas9 nuclease and sgRNA. Once a double-strand breaking at the target site in pSurrogate reporter plasmid was created by Cas9, insertions and deletions (indels) could be introduced at the cleaved site. The indels cause frameshifts and result in the expression of the mCherry gene. 3T3-L1 preadipocytes were co-transfected with pSurrogate reporter and pAll-Cas9.Ppuro vectors at 80-90% confluency using PolyJet™ transfection reagent (cat. no. SL100688, SignaGen Laboratories, USA). Two days after transfection, EGFP/mCherry double-positive cells were enriched by fluorescent-activated cell sorting. Single cells were isolated and expanded. The genomic DNA was amplified by PCR and sequenced to confirm the knockout cell lines. The primer sequences are shown in Appendix Table S5.
(§3) The mPPARγ C313A DNA sequence was amplified from pCMV6-Pparg C313A and subcloned into the pLVX-IRES-Neo vector with XhoI/NotI restriction sites. The lentiviral expression plasmids, pMD.G, and pCMVΔR8.91 (RNAi Core, Academia Sinica, Taiwan), were co-transfected into HEK293T cells. […] HSP70 was probed with an anti-HSP70 antibody (cat. no. ab45133, Abcam) as a loading control.
(§4) Differentiated 3T3-L1 cells were starved with serum-free DMEM containing 0.2% BSA (cat. no. A9647, Sigma-Aldrich). […] Uptake of 2DG was terminated by rapidly removing medium and washing with ice-cold PBS three times. Cells were lysed with 0.1% SDS, and the radioactivity was measured using a liquid scintillation counter. Insulin-mediated glucose uptake was calculated by subtracting insulin-treated glucose uptake with basal glucose uptake.

[4] = tested on: PPARγ-null 3T3-L1 clones rescued with mutant mPPARγ (C313A); assay: Insulin-stimulated glucose uptake in PPARγ-null 3T3-L1 clones rescued with mutant mPPARγ (C313A); format: cell-based, mouse; conditions: Pio 1; clone #1296 rescued with mPPARγ C313A
Method: as §2, §3, §4

[5] = tested on: PTGR2; parameters: method as in Toroitich et al, 2021; conditions: ref Toroitich et al, 2021; cited from earlier work
[6] = tested on: PTGR2; parameters: method as in Toroitich et al, 2021; conditions: ref Toroitich et al, 2021; cited from earlier work; remark: listed apart in the source

CCc1ccc(CCOc2ccc(CC3SC(=O)NC3=O)cc2)nc1 (stereo not shown) [Pio, pioglitazone]
insulin-stimulated glucose uptake, Fig 1J replicates ([1]; Pio 1): 4.303 and 3.949 and 2.761 and 3.925
Adipoq RT-qPCR, Fig 1I replicates ([2]; Pio 1μM): 1.437 and 1.615 and 1.7913
Cepba RT-qPCR, Fig 1H replicates ([2]; Pio 1μM): 2.586 and 1.702 and 2.911
Acs RT-qPCR, Fig 1G replicates ([2]; Pio 1): 6.866 and 5.338 and 5.547
Cd36 RT-qPCR, Fig 1F replicates ([2]; Pio 1): 2.685 and 1.765 and 2.147
Glut4 RT-qPCR, Fig 1C replicates ([2]; Pio 1): 6.074 and 7.473 and 6.277
Irs2 RT-qPCR, Fig 1D replicates ([2]; Pio 1): 3.5423 and 3.905 and 3.691
Sorbs1 RT-qPCR, Fig 1E replicates ([2]; Pio 1): 2.4621 and 3.493 and 3.111
insulin-stimulated glucose uptake, Fig 1P left panel replicates [3]: 4.143 and 3.599 and 3.13 and 3.624
insulin-stimulated glucose uptake, Fig 1P right panel replicates [4]: 4.613 and 5.328 and 5.351 and 7.42

O=C(c1ccc(S(=O)(=O)n2cncn2)cc1)N1CCC(c2ccccc2)CC1 [HHS-0701]
PTGR2 enzymatic activity [5]: inhibit PTGR2 enzymatic activity
intracellular 15-keto-PGE2 concentration [6]: increase intracellular 15-keto-PGE2 concentration dose-dependently

CCCCCC(=O)/C=C/[C@H]1[C@H](O)CC(=O)[C@@H]1C/C=C\CCCC(=O)O [15ketoPGE2]
Figure 5E raw value, insulin-stimulated glucose uptake (replicates) ([1]; 10 uM, DMSO control 2969.5-4461.5): 5153.5 and 5837.5 and 5784.5 and 5754.5

Reference: paper PMC12081876, “Identification of PTGR2 inhibitors as a new therapeutic strategy for diabetes and obesity” (EMBO Molecular Medicine, 2025)
